Experimental data: patent US20080058421A1, “COMPOSITIONS FOR CLEANING AND DISINFECTING NASAL TRACT AND SINUS CAVITY” (priority 2006, published 2008)

What was measured:
Format in all cases: cell-based
[1] = test system: Escherichia coli ATCC 11229; experiment: A.O.A.C. sanitizer and germicidal detergent test
Excerpt: (§1) The bacterial cultures were purchased from the American Type Culture Collection (ATCC), (Bethesda, Md.). Escherichia coli and Staphylococcus aureus are used to represent both gram-negative and gram-positive bacterial classes. This test is used by the US EPA for to determine compliance for a product to be used as a sanitizing agent. A product that reduces population density of both types of bacteria in 30 seconds by 99.999% satisfies the requirement as a sanitizing agent.

[2] = test system: Staphylococcus aureus ATCC 6538; experiment: A.O.A.C. sanitizer and germicidal detergent test
Excerpt: as §1

[3] = test system: A. h. 7965 (Aeromonas hydrophila); experiment: modified A.O.A.C. germicidal and detergent sanitizer test
Experimental: (§2) The efficacy of the sanitizers in Examples 1, 2 and 3 was further evaluated with […] as controls against Salmonella typhimurium, Listeria monocytogenes, Aeromonas hydrophila, and Pseudomonas aeruginosa essentially by the modified detergent and germicidal sanitizer test of the A.O.A.C. The sanitizers were tested against both natural isolates and the antibiotic resistant strains of Listeria monocytogenes and Salmonella typhimurium. Each of the antibiotic resistant strains was used separately as well as in a composite strain prepared by mixing equal numbers of five different antibiotic resistant strains of Listeria monocytogenes or those of Salmonella typhimurium, respectively.

[4] = test system: L. m. 7644 (Listeria monocytogenes); experiment: as above
Experimental: as §2

[5] = test system: P. a. 10145 (Pseudomonas aeruginosa); experiment: as above
Experimental: as §2

[6] = test system: S. t. 7823 (Salmonella typhimurium); experiment: as above
Experimental: as §2

[7] = sanitizer criterion is 99.999% reduction in 30 seconds

For `OCl` [Hypochlorite], the “meets criterion of a sanitizer (99.999% reduction in 30 seconds)” value ([1]; Fifty ppm hypochlorite) was “meets the criterion of a sanitizer”, the “% Kill E. coli” value [1, 7] was >99.999% and the “meets criterion of a sanitizer (99.999% reduction in 30 seconds)” value ([2]; Fifty ppm hypochlorite) was “meets the criterion of a sanitizer”. The “% Kill Staph. aureus” value [2, 7] was >99.999%, the “% Kill” value ([3]; 30 seconds contact) was >99.999% and the “% Kill” value ([3]; 60 seconds contact) was >99.999%. For the same molecule, the “% Kill” value ([4]; 30 seconds contact) was >99.999%, the “% Kill” value ([4]; 60 seconds contact) was >99.999% and the “% Kill” value ([5]; 30 seconds contact) was >99.999%. The “% Kill” value ([5]; 60 seconds contact) was >99.999%, the “% Kill” value ([6]; 30 seconds contact) was <99.999% and the “Number of surviving bacteria/ml after contact, cfu/ml” value ([6]; 30 seconds contact, HOCL = 50 ppm, duplicate counts) was “T@, T@”. The “% Kill” value ([6]; 60 seconds contact) was >99.999%.
